The target of one test is αvβ1 (Homo sapiens, UniProt P05556+P06756). Nature of the test: Solid Phase Integrin αvβ1 Assay. The test is classed as binding. In short, it runs like this: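 Compound competes for αvβ1 binding to immobilized TGFb1-LAP (1 µg/mL coat) in Mn2+ (1 mM MnCl2), 2% BSA binding buffer over 90 min at room temperature, integrin added at 0.2 µg/mL. Read-out: streptavidin-HRP/TMB; IC50 from Levenberg-Marquardt four-parameter fit.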

The target in the next test is αvβ6 (Homo sapiens, UniProt P06756+P18564). Kind of test: Solid Phase Integrin αvβ6 Assay. Format: binding. The gist of the method:
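Inhibition of αvβ6 binding to immobilized recombinant TGFb1-LAP (1 μg/mL coating), 1 h at room temperature with 1 mM MnCl2 in BSA/TBST buffer, integrin diluted to 0.2 μg/mL before addition. Streptavidin-HRP/TMB read-out; four-parameter logistic fitting gave IC50.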

Counter-ions that a name gives are not always drawn. Where only a bound is given, the exact number is not on record here.

For 19 compounds, IC50 results are on record in patent publication US20240208968A1, “ALPHA V BETA 6 AND ALPHA V BETA 1 INTEGRIN INHIBITORS AND USES THEREOF” (DiCE Molecules SV, Inc., priority 2021, published 2024).

For orientation: IC50 means the concentration at which inhibition is half-maximal. Higher therefore signals weaker potency.

Chain of αvβ6 (P06756 31-992 limits assumed): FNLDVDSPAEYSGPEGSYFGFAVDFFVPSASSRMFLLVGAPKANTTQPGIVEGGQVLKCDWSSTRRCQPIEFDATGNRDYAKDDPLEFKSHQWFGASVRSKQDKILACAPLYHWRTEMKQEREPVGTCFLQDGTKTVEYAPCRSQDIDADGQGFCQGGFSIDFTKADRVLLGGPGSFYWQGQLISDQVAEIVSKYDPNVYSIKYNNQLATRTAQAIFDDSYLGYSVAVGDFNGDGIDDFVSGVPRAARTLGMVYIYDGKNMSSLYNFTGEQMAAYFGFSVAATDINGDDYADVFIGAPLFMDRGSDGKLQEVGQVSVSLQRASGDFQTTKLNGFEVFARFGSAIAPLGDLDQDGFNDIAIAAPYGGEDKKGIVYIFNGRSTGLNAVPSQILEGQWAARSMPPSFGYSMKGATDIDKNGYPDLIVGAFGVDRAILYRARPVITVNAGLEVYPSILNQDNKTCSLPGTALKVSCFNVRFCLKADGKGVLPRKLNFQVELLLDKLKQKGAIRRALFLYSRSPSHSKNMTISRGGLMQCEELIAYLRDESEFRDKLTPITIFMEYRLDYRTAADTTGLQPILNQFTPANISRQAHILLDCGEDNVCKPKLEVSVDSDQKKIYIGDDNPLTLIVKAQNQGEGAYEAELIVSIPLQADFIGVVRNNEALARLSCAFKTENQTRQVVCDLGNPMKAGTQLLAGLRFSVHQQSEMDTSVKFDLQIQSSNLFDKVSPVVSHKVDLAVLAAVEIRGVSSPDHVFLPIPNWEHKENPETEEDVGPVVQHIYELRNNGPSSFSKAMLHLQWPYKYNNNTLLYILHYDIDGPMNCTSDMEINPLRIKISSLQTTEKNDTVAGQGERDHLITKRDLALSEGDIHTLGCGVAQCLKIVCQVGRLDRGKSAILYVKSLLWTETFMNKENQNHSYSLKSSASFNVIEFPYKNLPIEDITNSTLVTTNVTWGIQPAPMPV
Chain of αvβ6 (P18564 22-707 limits assumed): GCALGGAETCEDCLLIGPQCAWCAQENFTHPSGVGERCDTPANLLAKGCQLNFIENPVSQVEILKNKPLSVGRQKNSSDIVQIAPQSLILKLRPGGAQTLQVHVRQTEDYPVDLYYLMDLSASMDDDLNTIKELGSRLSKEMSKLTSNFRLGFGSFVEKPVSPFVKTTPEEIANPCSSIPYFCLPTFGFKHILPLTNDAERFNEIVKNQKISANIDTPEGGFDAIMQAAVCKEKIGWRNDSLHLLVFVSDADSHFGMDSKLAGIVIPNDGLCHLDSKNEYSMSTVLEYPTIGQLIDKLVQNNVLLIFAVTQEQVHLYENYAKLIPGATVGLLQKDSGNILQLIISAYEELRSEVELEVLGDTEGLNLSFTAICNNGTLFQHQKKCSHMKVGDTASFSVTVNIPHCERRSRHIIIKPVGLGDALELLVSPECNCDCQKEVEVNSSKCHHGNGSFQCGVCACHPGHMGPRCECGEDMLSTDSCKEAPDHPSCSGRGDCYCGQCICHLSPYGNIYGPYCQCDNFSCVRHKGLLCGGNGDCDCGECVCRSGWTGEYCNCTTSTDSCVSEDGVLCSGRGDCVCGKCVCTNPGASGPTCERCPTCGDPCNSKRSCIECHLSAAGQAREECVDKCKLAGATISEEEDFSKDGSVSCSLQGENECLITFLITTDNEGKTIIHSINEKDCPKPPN
Chain of αvβ1 (P06756 31-992 limits assumed): as the sequence (P06756 31-992 limits assumed) above
Chain of αvβ1 (P05556 21-728 limits assumed): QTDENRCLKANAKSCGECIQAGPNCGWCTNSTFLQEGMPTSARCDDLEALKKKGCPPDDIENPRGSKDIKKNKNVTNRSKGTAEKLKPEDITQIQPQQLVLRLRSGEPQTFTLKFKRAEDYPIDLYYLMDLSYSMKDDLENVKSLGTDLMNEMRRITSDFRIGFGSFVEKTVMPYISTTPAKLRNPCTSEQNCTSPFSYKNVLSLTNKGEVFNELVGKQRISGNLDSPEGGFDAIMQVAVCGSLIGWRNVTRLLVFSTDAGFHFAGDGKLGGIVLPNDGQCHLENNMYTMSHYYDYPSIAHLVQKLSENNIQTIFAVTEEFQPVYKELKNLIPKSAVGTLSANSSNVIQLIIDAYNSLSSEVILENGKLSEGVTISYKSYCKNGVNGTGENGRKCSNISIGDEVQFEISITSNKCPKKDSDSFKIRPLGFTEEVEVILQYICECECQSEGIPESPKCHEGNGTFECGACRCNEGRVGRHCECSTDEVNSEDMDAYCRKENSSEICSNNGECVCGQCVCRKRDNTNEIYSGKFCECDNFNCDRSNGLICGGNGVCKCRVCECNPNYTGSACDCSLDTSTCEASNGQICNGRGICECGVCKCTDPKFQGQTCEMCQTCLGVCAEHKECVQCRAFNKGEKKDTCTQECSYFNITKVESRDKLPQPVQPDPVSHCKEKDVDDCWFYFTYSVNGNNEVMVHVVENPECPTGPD

`O=C(N[C@@H](CNC(=O)[C@@H]1CCCN(CCCc2ccc3c(n2)NCCC3)C1)C(=O)O)C1CC2CCC1CC2` (stereo partly drawn) [Compound 285, (2S)-2-(bicyclo[22.2]octane-2-carboxamido)-3-((R)-1-(3-(5,6,7,8-tetrahydro-1,8-naphthyridin-2-yl)propyl)piperidine-3-carboxamido)propanoic acid]: the IC50 at αvβ1 and at αvβ6 was less than 0.1 µM in each case.

Regarding `O=C(O)C[C@H](NC(=O)[C@H]1CCCN(C(=O)CCc2ccc3c(n2)NCCC3)C1)c1ccccc1` [Compound 286, (S)-3-phenyl-3-((S)-1-(3-(5,6,7,8-tetrahydro-1,8-naphthyridin-2-yl)propanoyl)piperidine-3-carboxamido)propanoic acid hydrochloride], the IC50 on αvβ1 and on αvβ6 was more than 1 µM each time.

Take `O=C(O)C[C@H](NC(=O)[C@H]1CCCN(CCCCc2ccc3c(n2)NCCC3)C1)c1ccccc1` [Compound 287, (S)-3-phenyl-3-((S)-1-(4-(5,6,7,8-tetrahydro-1,8-naphthyridin-2-yl)butyl)piperidine-3-carboxamido)propanoic acid]: the IC50 on αvβ1 and on αvβ6 was more than 1 µM throughout.

As to `O=C(O)C[C@H](NC(=O)[C@@H]1CCCN(CCCCc2ccc3c(n2)NCCC3)C1)c1ccccc1` [Compound 288, (S)-3-phenyl-3-((R)-1-(4-(5,6,7,8-tetrahydro-1,8-naphthyridin-2-yl)butyl)piperidine-3-carboxamido)propanoic acid hydrochloride], the half-maximal inhibitory concentration (IC50) is 0.1 to 1 µM at αvβ1 and less than 0.1 µM against αvβ6.

On to `O=C(O)C[C@H](NC(=O)[C@@H]1CCCN(C(=O)CCc2ccc3c(n2)NCCC3)C1)c1ccccc1` [Compound 289, (S)-3-phenyl-3-((R)-1-(3-(5,6,7,8-tetrahydro-1,8-naphthyridin-2-yl)propanoyl)piperidine-3-carboxamido)propanoic acid hydrochloride], for which the IC50 at αvβ1 and against αvβ6 was 0.1 to 1 µM throughout.

For `O=C(O)C[C@H](NC(=O)[C@@H]1CCCN(CCc2ccc3c(n2)NCCC3)C1)c1ccccc1` [Compound 290, (S)-3-phenyl-3-((R)-1-(2-(5,6,7,8-tetrahydro-1,8-naphthyridin-2-yl)ethyl)piperidine-3-carboxamido)propanoic acid], the values for the IC50 against αvβ1 and at αvβ6 were more than 1 µM and 0.1 to 1 µM, respectively.

In the case of `O=C(O)C[C@H](NC(=O)[C@@H]1CN(CCCc2ccc3c(n2)NCCC3)CC(F)(F)C1)c1ccccc1` [Compound 291-A, (3S)-3-(5,5-difluoro-1-(3-(5,6,7,8-tetrahydro-1,8-naphthyridin-2-yl)propyl)piperidine-3-carboxamido)-3-phenylpropanoic acid], the IC50 against αvβ1 was 0.1 to 1 µM; against αvβ6, less than 0.1 µM.

On to `O=C(O)C[C@H](NC(=O)[C@H]1CN(CCCc2ccc3c(n2)NCCC3)CC(F)(F)C1)c1ccccc1` [Compound 291-B, (3S)-3-(5,5-difluoro-1-(3-(5,6,7,8-tetrahydro-1,8-naphthyridin-2-yl)propyl)piperidine-3-carboxamido)-3-phenylpropanoic acid], for which the IC50 on αvβ1 and against αvβ6 was 0.1 to 1 µM in each case.

As for `O=C(O)C[C@H](NC[C@@H]1CCCN(CCCc2ccc3c(n2)NCCC3)C1)c1ccccc1` [Compound 292, (S)-3-phenyl-3-(S)-1-(3-(5,6,7,8-tetrahydro-1,8-naphthyridin-2-yl)propyl)piperidin-3-yl)methyl)amino)propanoic acid hydrochloride], the IC50 against αvβ1 and on αvβ6 was more than 1 µM in each case.

Turning to `CN(C[C@@H]1CCCN(CCCc2ccc3c(n2)NCCC3)C1)[C@@H](CC(=O)O)c1ccccc1` [Compound 293, (S)-3-(methyl(((R)-1-(3-(5,6,7,8-tetrahydro-1,8-naphthyridin-2-yl)propyl)piperidin-3-yl)methyl)amino)-3-phenylpropanoic acid hydrochloride], the IC50 at αvβ1 and on αvβ6 was more than 1 µM each time.

Regarding `O=C(O)C[C@H](OC[C@@H]1CCCN(CCCc2ccc3c(n2)NCCC3)C1)c1ccccc1` [Compound 294, (S)-3-phenyl-3-(((R)-1-(3-(5,6,7,8-tetrahydro-1,8-naphthyridin-2-yl)propyl)piperidin-3-yl)methoxy)propanoic acid], the IC50 on αvβ1 and on αvβ6 was more than 1 µM throughout.

As for `O=C(O)C[C@H](CN[C@@H]1CCCN(CCCc2ccc3c(n2)NCCC3)C1)c1ccccc1` [Compound 295, (S)-3-phenyl-4-(((R)-1-(3-(5,6,7,8-tetrahydro-1,8-naphthyridin-2-yl)propyl)piperidin-3-yl)amino)butanoic acid], the IC50 against αvβ1 and against αvβ6 was less than 0.1 µM throughout.

As to `CN(C[C@@H](CC(=O)O)c1ccccc1)[C@@H]1CCCN(CCCc2ccc3c(n2)NCCC3)C1` [Compound 296, (S)-4-(methyl((R)-1-(3-(5,6,7,8-tetrahydro-1,8-naphthyridin-2-yl)propyl)piperidin-3-yl)amino)-3-phenylbutanoic acid], the IC50 at αvβ1 is 0.1 to 1 µM; at αvβ6 it was more than 1 µM.

Turning to `O=C(O)CC(CO[C@@H]1CCCN(CCCc2ccc3c(n2)NCCC3)C1)c1ccccc1` (stereo partly drawn) [Compound 297, 3-phenyl-4-(((R)-1-(3-(5,6,7,8-tetrahydro-1,8-naphthyridin-2-yl)propyl)piperidin-3-yl)oxy)butanoic acid hydrochloride], the IC50 against αvβ1 and at αvβ6 was less than 0.1 µM in each case.

Take `O=C(O)C[C@H](CO[C@@H]1CCCN(CCCc2ccc3c(n2)NCCC3)C1)c1ccccc1` [Compound 297-A, 3-phenyl-4-(((R)-1-(3-(5,6,7,8-tetrahydro-1,8-naphthyridin-2-yl)propyl)piperidin-3-yl)oxy)butanoic acid]: the IC50 against αvβ1 and against αvβ6 was 0.1 to 1 µM each time.

`O=C(O)C[C@@H](CO[C@@H]1CCCN(CCCc2ccc3c(n2)NCCC3)C1)c1ccccc1` [Compound 297-B, 3-phenyl-4-(((R)-1-(3-(5,6,7,8-tetrahydro-1,8-naphthyridin-2-yl)propyl)piperidin-3-yl)oxy)butanoic acid]: the IC50 against αvβ1 and against αvβ6 was less than 0.1 µM in each case.

Consider `O=C(O)C[C@@H](CC[C@@H]1CCCN(CCCc2ccc3c(n2)NCCC3)C1)c1ccccc1` [Compound 298-A, 3-phenyl-5-((R)-1-(3-(5,6,7,8-tetrahydro-1,8-naphthyridin-2-yl)propyl)piperidin-3-yl)pentanoi c acid], for which the IC50 on αvβ1 was less than 0.1 µM; against αvβ6 it was 0.1 to 1 µM.

Turning to `O=C(O)C[C@H](CC[C@@H]1CCCN(CCCc2ccc3c(n2)NCCC3)C1)c1ccccc1` [Compound 298-B, 3-phenyl-5-((R)-1-(3-(5,6,7,8-tetrahydro-1,8-naphthyridin-2-yl)propyl)piperidin-3-yl)pentanoi c acid], the IC50 at αvβ1 and against αvβ6 was less than 0.1 µM throughout.

On to `O=C(O)C[C@H](C(=O)N[C@@H]1CCCN(CCCc2ccc3c(n2)NCCC3)C1)c1ccccc1` [Compound 299, (S)-4-oxo-3-phenyl-4-(((R)-1-(3-(5,6,7,8-tetrahydro-1,8-naphthyridin-2-yl)propyl)piperidin-3-yl)amino)butanoic acid], for which the IC50 against αvβ1 and at αvβ6 was more than 1 µM throughout.
